Experimental data taken from patent US11964971B2, “Methods and compositions for modulating splicing” (Skyhawk Therapeutics, Inc., priority 2019, dated 2024).
Where two headings read alike, the source gives them in different places.

Assays:
SMN protein = SMN protein assay (MSD) in SMA patient fibroblasts (GM03813); assay type: cell-based, human
How it was run: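 SMA patient fibroblasts GM03813 (7000 cells/well) treated 48 h with compounds from 2.5 μM to 0.6 nM. Lysate SMN protein quantified by MSD immunoassay against an SMN standard curve (1 to 19.5 μg/ml) on each plate, giving absolute amounts.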

SMN FL and SMN Δ7 = test: Quantitative splicing assay (SMN) in SMA patient fibroblasts (GM03813); assay type: cell-based; details: Homo sapiens, Fibroblast, read-out: SMN2 Splicing FL EC50 (nM)*
Procedure: Spinal muscular atrophy (SMA) patient fibroblasts (GM03813, Coriell) are plated in 96-well plates at 50,000 cells/well. […] Treated cells are lysed and cDNA synthesized using the Fast Advanced Cells-to-Ct kit (Thermofisher A35378) according to the manufacturer's instructions. 2 μL of each cDNA are used in qPCR reactions. […] Reactions are run in a Quant Studio 6 qPCR instrument with default settings.

[1] = tested on: MDR1-MDCK cell monolayers; details: dog, MDCK-MDR1, 120 min, 5 μM, pH 7.4
Procedure: (§1) Experimental Procedure: MDR1-MDCK cell monolayers are grown to confluence on collagen-coated, microporous membranes in 12-well assay plates. The permeability assay buffer is Hanks' balanced salt solution containing 10 mM HEPES and 15 mM glucose at a pH of 7.4. The buffer in the receiver chamber also contained 1% bovine serum albumin. The dosing solution concentration is 5 μM of test article in the assay buffer. Cell monolayers are dosed on the apical side (A-to-B) or basolateral side (B-to-A) and incubated at 37° C. with 5% CO2 in a humidified incubator. Samples are taken from the donor and receiver chambers at 120 minutes. Each determination is performed in duplicate. The flux of lucifer yellow is also measured post-experimentally for each monolayer to ensure no damage was inflicted to the cell monolayers during the flux period. All samples are assayed by LC-MS/MS using electrospray ionization.
(§2) Analytical Method: Liquid Chromatography • Column: Waters ACQUITY UPLC BEH Phenyl 30×2.1 mm, 1.7 μm • M.P. Buffer: 25 mM ammonium formate buffer, pH 3.5 • Aqueous Reservoir (A): 90% water, 10% buffer • Organic Reservoir (B): 90% acetonitrile, 10% buffer • Flow Rate: 0.7 mL/minute • Gradient Program:
(§3) • Total Run Time: 1.00 minute • Autosampler: 2 μL injection volume • Wash1: water/methanol/2-propanol:1/1/1; with 0.2% formic acid • Wash2: 0.1% formic acid in water • Brain Penetration • Potential Classification: A-B Papp≥3.0 and Efflux Ratio<3.0: High • A-B Papp≥3.0 and 10>Efflux Ratio≥3.0: Moderate • A-B Papp≥3.0 and Efflux Ratio≥10: Low • A-B Papp<3.0: Low

MDR1 (P-gp) = test: MDCK-MDR1 permeability assay, blood-brain-barrier penetration potential; details: dog, MDCK-MDR1, pH 7.4, MDCK-MDR1 Efflux Ratio
Procedure: as §1, §2, §3

MDR1 = test: in vitro; details: dog; for Papp A→B at 120 min, 5 μM: MDCK-MDR1, pH 7.4, MDCK-MDR1: Papp A-B (10^−6, cm/s); for Papp B→A at 120 min, 5 μM: MDCK-MDR1, pH 7.4, MDCK-MDR1: Papp B-A (10^−6, cm/s)
Procedure: as §1, §2, §3

| SMILES | EC50 (SMN protein) | EC50 (SMN FL and SMN Δ7; class symbol) | MDCK-MDR1: % Recov A-B (%) [1] | MDCK-MDR1: % Recov B-A (%) [1] | efflux ratio at 120 min, 5 μM (MDR1 (P-gp)) | Papp A→B at 120 min, 5 μM (MDR1) | Papp B→A at 120 min, 5 μM (MDR1) | EC50 (SMN FL and SMN Δ7; given as number) |
| --- | --- | --- | --- | --- | --- | --- | --- | --- |
| CN(c1cnc(-c2ccc(-c3cn[nH]c3)cc2O)cn1)[C@H]1C[C@@H]2COCC(N2)[C@H]1F (single isomer, unassigned) [Compound 72E2] | 101 to 500 nM | 501 to 10000 nM | 96% | 113% | 8 | 9.82 ×10⁻⁶ cm/s | 82.5 ×10⁻⁶ cm/s |  |
| CN(c1cnc(-c2ccc(-c3cn[nH]c3)cc2O)cn1)[C@H]1CC2CCC[C@@H](N2)[C@H]1F (single isomer, unassigned) [Compound 6E2] | 0.01 to 15 nM | 16 to 50 nM | 70% | 58% | 6 | 3.67 ×10⁻⁶ cm/s | 22.2 ×10⁻⁶ cm/s |  |
| COc1cc(-c2ccc(-c3cnc(N(C)[C@@H]4CC5COC[C@H](N5)[C@@H]4F)cn3)c(O)c2)ccn1 (single isomer, unassigned) [Compound 81E1] | 501 to 10000 nM | 501 to 10000 nM | 28% | 47% | 1 | 2.69 ×10⁻⁶ cm/s | 3.08 ×10⁻⁶ cm/s |  |
| CN(c1cnc(-c2cc(F)c(-c3ccn(C)c(=O)c3)cc2O)cn1)[C@H]1C[C@@H]2CCC(N2)[C@H]1F (single isomer, unassigned) [Compound 13E2] | 0.01 to 15 nM |  | 80% | 87% | 21 | 1.97 ×10⁻⁶ cm/s | 40.8 ×10⁻⁶ cm/s | 398 nM |
| CN(c1cnc(-c2ccc(-c3cnn(C)c3)cc2O)cn1)[C@@H]1CC2CC[C@H](N2)[C@@H]1F (single isomer, unassigned) [Compound 16E1] | 16 to 50 nM | 501 to 10000 nM | 45% | 79% | 4 | 5.62 ×10⁻⁶ cm/s | 20.6 ×10⁻⁶ cm/s |  |
| CN(c1cnc(-c2ccc(-c3cnn(C)c3)cc2O)cn1)[C@H]1CC2CC[C@@H](N2)[C@H]1F (single isomer, unassigned) [Compound 3E2] | 16 to 50 nM | 101 to 500 nM | 53% | 68% | 3 | 9.7 ×10⁻⁶ cm/s | 27.1 ×10⁻⁶ cm/s |  |
| CN(c1cnc(-c2ccc(-c3cnn(C)c3)cc2O)cn1)[C@@H]1C[C@H]2CCC(N2)[C@@H]1F (single isomer, unassigned) [Compound 3E1] | 16 to 50 nM | 101 to 500 nM | 56% | 66% | 3 | 8.42 ×10⁻⁶ cm/s | 22 ×10⁻⁶ cm/s |  |
| CN(c1cnc(-c2cc(F)c(-c3cnn(C)c3)cc2O)cn1)[C@H]1C[C@]2(C)CC[C@@](C)(N2)[C@H]1F [Compound 58E2, 4-fluoro-2-(5-(((1R,2S,3S,5S)-2-fluoro-1,5-dimethyl-8-azabicyclo[3.2.1]octan-3-yl)(methyl)amino)pyrazin-2-yl)-5-(1-methyl-1H-pyrazol-4-yl)phenol] | 0.01 to 15 nM | 101 to 500 nM | 32% | 69% | 3 | 5.98 ×10⁻⁶ cm/s | 16.4 ×10⁻⁶ cm/s |  |
| CN(c1cnc(-c2ccc(-c3cn[nH]c3)cc2O)cn1)[C@H]1C[C@]2(C)CCC[C@@](C)(N2)[C@H]1F [Compound 23E2, 2-(5-(((1R,2S,3S,5S)-2-fluoro-1,5-dimethyl-9-azabicyclo[3.3.1]nonan-3-yl)(methyl)amino)pyrazin-2-yl)-5-(1H-pyrazol-4-yl)phenol] | 0.01 to 15 nM | 16 to 50 nM | 39% | 65% | 2 | 5.71 ×10⁻⁶ cm/s | 13.6 ×10⁻⁶ cm/s |  |
| CN(c1cnc(-c2ccc(-c3ccn(C)c(=O)c3)cc2O)cn1)[C@H]1CC2CCC[C@@H](N2)[C@H]1F (single isomer, unassigned) [Compound 5E2] | 16 to 50 nM | 101 to 500 nM | 78% | 82% | 22 | 1.96 ×10⁻⁶ cm/s | 43 ×10⁻⁶ cm/s |  |
| COc1cc(-c2ccc(-c3cnc(N(C)[C@H]4C[C@@H]5COCC(N5)[C@H]4F)cn3)c(O)c2)cnn1 (single isomer, unassigned) [Compound 74E2] | 501 to 10000 nM | 501 to 10000 nM | 92% | 104% | 18 | 3.6 ×10⁻⁶ cm/s | 63.2 ×10⁻⁶ cm/s |  |
| CN(c1cnc(-c2cc(F)c(-c3ccn(C)c(=O)c3)cc2O)cn1)[C@H]1C[C@@H]2CCCC(N2)[C@H]1F (single isomer, unassigned) [Compound 12E2] | 16 to 50 nM | 501 to 10000 nM | 72% | 88% | 27 | 2.14 ×10⁻⁶ cm/s | 57.4 ×10⁻⁶ cm/s |  |
| COc1cc(-c2ccc(-c3cnc(N(C)[C@H]4C[C@]5(C)CC[C@@](C)(N5)[C@H]4F)cn3)c(O)c2)cnn1 [Compound 25E2, 2-(5-(((1R,2S,3S,5S)-2-fluoro-1,5-dimethyl-8-azabicyclo[3.2.1]octan-3-yl)(methyl)amino)pyrazin-2-yl)-5-(6-methoxypyridazin4-yl)phenol] | 101 to 500 nM | 501 to 10000 nM | 42% | 70% | 5 | 5.01 ×10⁻⁶ cm/s | 22.9 ×10⁻⁶ cm/s |  |
| COc1cc(-c2cc(O)c(-c3cnc(N(C)[C@H]4C[C@@H]5CCC(N5)[C@H]4F)cn3)cc2F)ncn1 (single isomer, unassigned) [Compound 34E2] | 16 to 50 nM | 51 to 100 nM | 21% | 66% | 2 | 3.76 ×10⁻⁶ cm/s | 7.23 ×10⁻⁶ cm/s |  |
| CN(c1cnc(-c2ccc(-c3ccn(C)c(=O)c3)cc2O)cn1)[C@@H]1CC2CCC[C@H](N2)[C@@H]1F (single isomer, unassigned) [Compound 83E1] | 101 to 500 nM | 101 to 500 nM | 78% | 81% | 52 | 0.94 ×10⁻⁶ cm/s | 48.4 ×10⁻⁶ cm/s |  |
| CN(c1cnc(-c2cc(F)c(-c3cn[nH]c3)cc2O)cn1)[C@H]1C[C@@H]2CCC(N2)[C@H]1F (single isomer, unassigned) [Compound 40E2] | 0.01 to 15 nM | 16 to 50 nM | 59% | 72% | 5 | 7.33 ×10⁻⁶ cm/s | 37.1 ×10⁻⁶ cm/s |  |
| CN(c1cnc(-c2ccc(-c3cn[nH]c3)cc2O)cn1)[C@@H]1CC2COC[C@H](N2)[C@@H]1F (single isomer, unassigned) [Compound 72E1] | 501 to 10000 nM | 501 to 10000 nM | 90% | 112% | 7 | 8.21 ×10⁻⁶ cm/s | 60.9 ×10⁻⁶ cm/s |  |
| CNC(=O)/C=C/c1cc(O)c(-c2cnc(N(C)[C@H]3C[C@]4(C)CC[C@@](C)(N4)[C@H]3F)cn2)cc1F [Compound 61E2, (E)-3-(2-fluoro-4-(5-(((1R,2S,3S,5S)-2-fluoro-1,5-dimethyl-8-azabicyclo[3.2.1]octan-3-yl)(methyl)amino)pyrazin-2-yl)-5-hydroxyphenyl)-N-methylacrylamide] | 0.01 to 15 nM | 501 to 10000 nM | 86% | 89% | 54 | 0.77 ×10⁻⁶ cm/s | 41.9 ×10⁻⁶ cm/s |  |
| CN(c1cnc(-c2ccc(-c3ccn(C)c(=O)c3)cc2O)cn1)[C@@H]1CC2CC[C@H](N2)[C@@H]1F (single isomer, unassigned) [Compound 45E1] | 101 to 500 nM | 51 to 100 nM | 88% | 85% | 37 | 1.3 ×10⁻⁶ cm/s | 47.6 ×10⁻⁶ cm/s |  |
| CN(c1cnc(-c2ccc(-c3cc[nH]c(=O)c3)cc2O)cn1)[C@H]1C[C@@H]2CC[C@@H](N2)[C@H]1F [Compound 76E2, 4-(4-(5-(((1R,2R,3S,5S)-2-fluoro-8-azabicyclo[3.2.1]octan-3-yl)(methyl)amino)pyrazin-2-yl)-3-hydroxyphenyl)pyridin-2(1H)-one] | 16 to 50 nM | 101 to 500 nM | 93% | 75% | 78 | 0.37 ×10⁻⁶ cm/s | 28.9 ×10⁻⁶ cm/s |  |
| COc1cc(-c2ccc(-c3cnc(N(C)[C@H]4C[C@@H]5COCC(N5)[C@H]4F)cn3)c(O)c2)ccn1 (single isomer, unassigned) [Compound 81E2] | 501 to 10000 nM | 101 to 500 nM | 42% | 77% | 2 | 2 ×10⁻⁶ cm/s | 3.4 ×10⁻⁶ cm/s |  |
